Experimental data published in patent US20240317816A1, “PEPTIDES FOR IMMUNOTHERAPY” (Genevive, Inc., priority 2021, published 2024).

Test system: Chemokine receptors
Experiment: LRC-TriCEPS LC-MS/MS identification of binding partners
Conditions: living cells, LRC-TriCEPS crosslinker
Experimental: SG-3-00802 binding partners were identified using the mass spectrometry-based proteomics (LC MS/MS)-based LRC-TriCEPS™ technology from DualSystems. To enrich for binding partners the ligand was coupled with the LRC-TriCEPS™ crosslinker and incubated with living cells that expressed target receptors. The enriched proteins were purified and processed for analysis by LC-MS/MS. A parallel experiment using transferrin as control ligand enabled the relative quantification of the enriched proteins. Putative binding partners of SG-3-00802 enriched over transferrin ligand are depicted in a volcano plot (FIG. 3).

## MKVRPSVKPMCEKCKIIRRKGRVMVICENPKHKQRQG [SG-3-00802]
  binding partners enriched over transferrin ligand: Chemokine receptors
